Experimental data taken from patent US7763429B2, “Compound containing farnesyl diphosphate for modulating TRPV3 function and use thereof” (Korea University Industry and Academic Collaboration …, priority 2008, dated 2010).

Columns and labels:
mTRPV3 [1] = target: T1, mTRPV3 (Mus musculus, UniProt Q8K424, A9V); experiment: Whole-cell voltage-clamp recording of mTRPV3 transfected HEK293T cells; assay type: cell-based; details: for TRPV3 activity (whole cell current): mTRPV3 transfected HEK293T cells
T1 construct: transiently transfected with plasmid DNA containing polynucleotide encoding; expressed in transfected cells; host or cells: HEK293T (ATCC CRL-11268), transient
T1 sequence (Q8K424 1-791 A9V): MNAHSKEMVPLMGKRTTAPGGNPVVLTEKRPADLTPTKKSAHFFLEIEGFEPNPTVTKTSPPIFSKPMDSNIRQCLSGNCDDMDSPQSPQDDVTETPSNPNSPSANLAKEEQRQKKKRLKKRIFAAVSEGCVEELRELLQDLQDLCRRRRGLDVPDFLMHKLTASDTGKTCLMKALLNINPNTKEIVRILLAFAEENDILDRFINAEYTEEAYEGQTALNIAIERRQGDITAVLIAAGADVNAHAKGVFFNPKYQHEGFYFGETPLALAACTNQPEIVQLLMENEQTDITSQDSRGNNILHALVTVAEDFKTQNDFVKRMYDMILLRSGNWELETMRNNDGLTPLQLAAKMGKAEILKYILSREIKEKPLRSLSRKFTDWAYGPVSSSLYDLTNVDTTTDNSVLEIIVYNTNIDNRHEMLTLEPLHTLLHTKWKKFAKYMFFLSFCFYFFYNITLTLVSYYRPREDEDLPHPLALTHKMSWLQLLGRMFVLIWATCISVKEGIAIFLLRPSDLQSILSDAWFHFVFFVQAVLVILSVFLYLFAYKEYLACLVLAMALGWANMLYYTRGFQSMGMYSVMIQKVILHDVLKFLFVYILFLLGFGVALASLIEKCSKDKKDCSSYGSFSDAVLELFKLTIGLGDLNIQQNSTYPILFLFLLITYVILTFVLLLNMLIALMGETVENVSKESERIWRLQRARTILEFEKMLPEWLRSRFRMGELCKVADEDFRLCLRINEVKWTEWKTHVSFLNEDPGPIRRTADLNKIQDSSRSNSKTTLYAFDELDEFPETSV
Protocol: (§1) HEK293T cell line (ATCC CRL-11268) was transiently transfected with plasmid DNA containing polynucleotide encoding […] (SEQ. ID. NO: 1), rTRPV2 (SEQ. ID. NO: 2), mTRPV3 (SEQ. ID. NO: 3), rTRPV4 (SEQ. ID. NO: 4), mTRPM8 (SEQ. ID. NO: 5) or mTRPA1 (SEQ. ID. NO: 6).
(§2) Particularly, the HEK293T cell line was transiently transfected with 3 μg/35 mm dish of rTRPV1, rTRPV2, mTRPV3, rTRPV4, mTRPM8 and mTRPA1 plasmid DNA, and 600 ng/well of pCDNA3 (Invitrogen Corp., USA; containing green fluorescent protein (GFP) cDNA) using Fugene6 (Roche Diagnostics, USA) according to manufacturer's instruction. The transformed cells were cultured in DMEM/F12 medium containing 10% FBS and 1% penicillin/streptomycin in a CO2 incubator for 24 hours. The cells were smeared on poly-L-lysine-coated glass coverslips, followed by further culture for 10-24 hours.
The mTRPV3 transfected cell line prepared in Example 1 was treated with 1 μM of FPP (Biomol, USA), 4 mM of camphor (Sigma-Aldrich, USA) and ruthenium red (RR; Sigma-Aldrich, USA) at a required time intervals as shown in FIG. 1a. Stock solutions were made using water or DMSO, and were diluted with test solutions before use.
Whole-cell voltage-clamp recording, one of the patch-clamp techniques, was performed with the transfected cell line of Example <1-1> according to the method of Bandel M, et al. (Neuron 41:849-857, 2004).
Particularly, the extracellular solution (140 mM NaCl, 5 mM KCl, 2 mM CaCl2, 1 mM MgCl2, 10 mM HEPES; titrated to pH 7.4 with NaOH) and the pipette solution (140 mM CsCl, 5 mM EGTA, 10 mM HEPES, 2.0 mM MgATP, 0.2 mM NaGTP; titrated to pH 7.2 with CSOH) were used. The potential was held at −60 mV for 250 ms, voltage-ramp pulsed from −80 mV to +80 mV for […] and returned to −60 mV for 250 ms, which was repeated without intersweep. This experiment was repeated 5 times.

mTRPV3 [2] = target: T1, mTRPV3; experiment: Fluo-3 calcium imaging of mTRPV3 transfected HEK293T cells; assay type: cell-based
Protocol: as §1, §2
The mTRPV3 transfected cell line prepared in Example 1 was treated with FPP at different concentrations from 0.1 to 1,000 nM.
(§3) Particularly, the transfected cell line of Example <3-1> was loaded with Fluo-3AM (5 μM; Sigma Aldrich, USA) in the bath solution (140 mM NaCl, 5 mM KCl, 2 mM CaCl2, 1 mM MgCl2, 10 mM HEPES; adjusted to pH 7.4 with NaOH) containing 0.02% pluronic acid (Invitrogen, USA) at 37° C. for 1 hour. Calcium imaging was performed with LSM5 Pascal confocal microscope (Carl Zeiss, Germany), and time-lapse images (excitation 488 nm/emission 514 nm) were collected every 3 seconds using Carl Zeiss ratio tool software (Carl Zeiss, Germany). Mean value curve of calcium influx response (n=12−62 per each experimental values) was made by Hill plot.
(§4) The TRPA1, TRPV1, TRPV2, TRPV3, TRPV4 and TRPM8 transfected cell lines prepared by the method of Example 1 and the non-transfected HEK cell line (control group) were treated with 1 μM of FPP. Calcium imaging was performed with the transfected cell lines treated as the above by the same manner as described in Example <3-2>.
as §4, with “with 10” for “with 1”, “of IPP (isopentenyl pyrophosphate: Biomol, USA) and 10 μM of GGPP (geranyl-geranyl pyrophosphate: Biomol, USA), the TRPV3 regulator analogues.” for “of FPP.”

mTRPA1 = target: T2, mTRPA1 (Mus musculus, UniProt Q8BLA8); experiment: Fluo-3 calcium imaging of TRPA1 transfected HEK293T cells; assay type: cell-based; details: 1 μM of FPP
T2 construct: transiently transfected with plasmid DNA containing polynucleotide encoding; expressed in transfected cells; host or cells: HEK293T (ATCC CRL-11268), transient
T2 sequence (Q8BLA8 whole entry): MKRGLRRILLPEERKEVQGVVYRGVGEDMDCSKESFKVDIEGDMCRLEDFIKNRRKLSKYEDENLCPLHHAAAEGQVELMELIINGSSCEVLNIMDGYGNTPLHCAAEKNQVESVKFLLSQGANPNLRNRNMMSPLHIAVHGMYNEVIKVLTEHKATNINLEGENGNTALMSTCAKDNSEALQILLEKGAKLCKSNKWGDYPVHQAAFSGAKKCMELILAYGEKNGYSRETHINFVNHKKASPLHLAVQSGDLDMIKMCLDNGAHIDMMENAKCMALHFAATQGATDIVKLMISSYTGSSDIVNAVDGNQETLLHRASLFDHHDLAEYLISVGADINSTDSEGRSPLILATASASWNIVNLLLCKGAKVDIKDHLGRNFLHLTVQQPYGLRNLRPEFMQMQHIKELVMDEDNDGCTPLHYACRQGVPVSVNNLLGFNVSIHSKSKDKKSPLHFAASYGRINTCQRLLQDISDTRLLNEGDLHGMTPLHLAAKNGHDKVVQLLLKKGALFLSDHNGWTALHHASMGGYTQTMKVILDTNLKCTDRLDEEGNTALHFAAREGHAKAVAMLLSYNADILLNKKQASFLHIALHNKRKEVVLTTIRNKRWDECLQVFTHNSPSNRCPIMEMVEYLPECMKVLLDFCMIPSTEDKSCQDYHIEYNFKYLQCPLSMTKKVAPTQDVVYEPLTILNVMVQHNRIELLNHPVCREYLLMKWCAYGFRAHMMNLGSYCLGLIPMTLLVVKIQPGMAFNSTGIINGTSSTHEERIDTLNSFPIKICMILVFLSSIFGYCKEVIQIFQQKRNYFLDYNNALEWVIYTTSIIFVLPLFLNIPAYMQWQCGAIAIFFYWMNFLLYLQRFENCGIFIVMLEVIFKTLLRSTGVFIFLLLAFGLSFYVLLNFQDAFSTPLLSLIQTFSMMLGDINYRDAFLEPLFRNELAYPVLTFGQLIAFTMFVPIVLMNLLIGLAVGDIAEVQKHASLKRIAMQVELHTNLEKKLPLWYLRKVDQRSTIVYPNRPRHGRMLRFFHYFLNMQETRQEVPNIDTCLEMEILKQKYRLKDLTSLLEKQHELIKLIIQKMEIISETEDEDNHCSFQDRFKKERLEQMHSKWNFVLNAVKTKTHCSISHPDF
Protocol: as §1, §2
as §3, with “Mean value curve of calcium influx response (n=12−62 per each experimental values) was made by Hill plot.” left out

rTRPV1 = target: T3, rTRPV1 (Rattus norvegicus, UniProt O35433); experiment: Fluo-3 calcium imaging of TRPV1 transfected HEK293T cells; assay type: cell-based; details: 1 μM of FPP
T3 construct: transiently transfected with plasmid DNA containing polynucleotide encoding; expressed in transfected cells; host or cells: HEK293T (ATCC CRL-11268), transient
T3 sequence (O35433 whole entry): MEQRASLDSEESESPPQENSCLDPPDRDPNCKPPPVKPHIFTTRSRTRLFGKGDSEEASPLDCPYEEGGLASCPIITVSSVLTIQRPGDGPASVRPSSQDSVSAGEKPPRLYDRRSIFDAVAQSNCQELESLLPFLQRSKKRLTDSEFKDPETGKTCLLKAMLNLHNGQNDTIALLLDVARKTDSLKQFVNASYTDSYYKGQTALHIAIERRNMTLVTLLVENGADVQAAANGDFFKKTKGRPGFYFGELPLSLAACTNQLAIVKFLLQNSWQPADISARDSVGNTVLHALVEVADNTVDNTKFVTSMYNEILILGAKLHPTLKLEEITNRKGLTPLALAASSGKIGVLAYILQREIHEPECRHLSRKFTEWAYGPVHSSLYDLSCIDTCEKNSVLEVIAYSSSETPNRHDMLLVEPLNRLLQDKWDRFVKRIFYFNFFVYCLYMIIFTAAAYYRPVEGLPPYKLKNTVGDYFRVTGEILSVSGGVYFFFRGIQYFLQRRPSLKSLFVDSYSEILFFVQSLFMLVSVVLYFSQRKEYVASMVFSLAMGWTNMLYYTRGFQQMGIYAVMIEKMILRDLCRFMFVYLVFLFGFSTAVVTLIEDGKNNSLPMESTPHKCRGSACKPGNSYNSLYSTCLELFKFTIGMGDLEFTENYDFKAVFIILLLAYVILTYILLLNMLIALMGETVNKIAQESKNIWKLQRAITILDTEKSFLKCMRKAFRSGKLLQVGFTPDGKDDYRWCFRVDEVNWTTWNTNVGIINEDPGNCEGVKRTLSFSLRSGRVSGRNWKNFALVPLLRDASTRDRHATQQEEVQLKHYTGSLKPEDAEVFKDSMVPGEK
Protocol: as §1, §2
as §3, with “Mean value curve of calcium influx response (n=12−62 per each experimental values) was made by Hill plot.” left out

rTRPV2 = target: T4, rTRPV2 (Rattus norvegicus, UniProt Q9WUD2, A713V/L151P/T158I); experiment: Fluo-3 calcium imaging of TRPV2 transfected HEK293T cells; assay type: cell-based; details: 1 μM of FPP
T4 construct: transiently transfected with plasmid DNA containing polynucleotide encoding; expressed in transfected cells; host or cells: HEK293T (ATCC CRL-11268), transient
T4 sequence (Q9WUD2 1-761 L151P/T158I/A713V): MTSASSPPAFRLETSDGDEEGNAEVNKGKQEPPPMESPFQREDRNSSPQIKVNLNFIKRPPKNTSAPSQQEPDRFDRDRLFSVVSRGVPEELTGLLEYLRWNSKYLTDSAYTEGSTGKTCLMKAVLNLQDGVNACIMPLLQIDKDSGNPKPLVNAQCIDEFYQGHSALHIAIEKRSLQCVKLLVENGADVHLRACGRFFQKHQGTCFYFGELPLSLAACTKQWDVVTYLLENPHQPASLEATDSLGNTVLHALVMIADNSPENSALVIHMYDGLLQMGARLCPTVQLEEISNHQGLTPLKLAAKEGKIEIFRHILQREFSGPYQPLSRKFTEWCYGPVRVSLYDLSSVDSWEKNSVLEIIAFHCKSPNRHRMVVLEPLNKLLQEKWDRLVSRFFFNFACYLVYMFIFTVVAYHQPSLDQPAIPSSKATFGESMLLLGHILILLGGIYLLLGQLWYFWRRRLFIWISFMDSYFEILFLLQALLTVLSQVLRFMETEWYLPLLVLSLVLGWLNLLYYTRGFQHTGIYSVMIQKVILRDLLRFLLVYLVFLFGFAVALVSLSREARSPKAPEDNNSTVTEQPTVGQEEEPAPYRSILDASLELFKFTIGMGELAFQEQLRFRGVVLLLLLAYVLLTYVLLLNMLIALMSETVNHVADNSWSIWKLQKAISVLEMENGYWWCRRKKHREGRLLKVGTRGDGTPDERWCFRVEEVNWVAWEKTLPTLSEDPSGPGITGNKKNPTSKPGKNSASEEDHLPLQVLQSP
Protocol: as §1, §2
as §3, with “Mean value curve of calcium influx response (n=12−62 per each experimental values) was made by Hill plot.” left out

rTRPV4 = target: T5, rTRPV4 (Rattus norvegicus, UniProt Q9ERZ8); experiment: Fluo-3 calcium imaging of TRPV4 transfected HEK293T cells; assay type: cell-based; details: 1 μM of FPP
T5 construct: transiently transfected with plasmid DNA containing polynucleotide encoding; expressed in transfected cells; host or cells: HEK293T (ATCC CRL-11268), transient
T5 sequence (Q9ERZ8 whole entry): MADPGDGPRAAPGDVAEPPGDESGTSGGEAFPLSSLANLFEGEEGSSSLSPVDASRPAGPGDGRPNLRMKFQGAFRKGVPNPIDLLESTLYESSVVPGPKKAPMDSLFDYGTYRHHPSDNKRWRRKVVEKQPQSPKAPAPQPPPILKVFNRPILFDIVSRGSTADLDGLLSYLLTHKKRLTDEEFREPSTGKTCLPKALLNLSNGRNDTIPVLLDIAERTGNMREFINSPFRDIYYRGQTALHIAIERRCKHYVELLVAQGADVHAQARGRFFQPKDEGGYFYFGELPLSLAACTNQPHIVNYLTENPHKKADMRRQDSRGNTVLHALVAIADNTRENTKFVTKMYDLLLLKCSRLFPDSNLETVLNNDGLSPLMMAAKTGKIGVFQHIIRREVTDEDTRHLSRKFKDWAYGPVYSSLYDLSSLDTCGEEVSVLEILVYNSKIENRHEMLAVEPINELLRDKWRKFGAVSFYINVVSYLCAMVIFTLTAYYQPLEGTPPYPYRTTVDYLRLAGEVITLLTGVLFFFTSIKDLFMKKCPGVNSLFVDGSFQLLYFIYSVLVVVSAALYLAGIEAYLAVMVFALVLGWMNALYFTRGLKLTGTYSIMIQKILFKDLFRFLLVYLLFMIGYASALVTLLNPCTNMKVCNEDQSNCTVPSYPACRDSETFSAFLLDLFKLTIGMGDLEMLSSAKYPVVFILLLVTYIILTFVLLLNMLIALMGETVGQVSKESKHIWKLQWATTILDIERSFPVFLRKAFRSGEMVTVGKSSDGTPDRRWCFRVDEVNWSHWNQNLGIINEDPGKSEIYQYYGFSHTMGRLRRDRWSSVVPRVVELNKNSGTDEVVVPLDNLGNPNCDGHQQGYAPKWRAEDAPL
Protocol: as §1, §2
as §3, with “Mean value curve of calcium influx response (n=12−62 per each experimental values) was made by Hill plot.” left out

mTRPM8 = target: T6, mTRPM8 (Mus musculus, UniProt Q8R4D5); experiment: Fluo-3 calcium imaging of TRPM8 transfected HEK293T cells; assay type: cell-based; details: 1 μM of FPP
T6 construct: transiently transfected with plasmid DNA containing polynucleotide encoding; expressed in transfected cells; host or cells: HEK293T (ATCC CRL-11268), transient
T6 sequence (Q8R4D5 whole entry): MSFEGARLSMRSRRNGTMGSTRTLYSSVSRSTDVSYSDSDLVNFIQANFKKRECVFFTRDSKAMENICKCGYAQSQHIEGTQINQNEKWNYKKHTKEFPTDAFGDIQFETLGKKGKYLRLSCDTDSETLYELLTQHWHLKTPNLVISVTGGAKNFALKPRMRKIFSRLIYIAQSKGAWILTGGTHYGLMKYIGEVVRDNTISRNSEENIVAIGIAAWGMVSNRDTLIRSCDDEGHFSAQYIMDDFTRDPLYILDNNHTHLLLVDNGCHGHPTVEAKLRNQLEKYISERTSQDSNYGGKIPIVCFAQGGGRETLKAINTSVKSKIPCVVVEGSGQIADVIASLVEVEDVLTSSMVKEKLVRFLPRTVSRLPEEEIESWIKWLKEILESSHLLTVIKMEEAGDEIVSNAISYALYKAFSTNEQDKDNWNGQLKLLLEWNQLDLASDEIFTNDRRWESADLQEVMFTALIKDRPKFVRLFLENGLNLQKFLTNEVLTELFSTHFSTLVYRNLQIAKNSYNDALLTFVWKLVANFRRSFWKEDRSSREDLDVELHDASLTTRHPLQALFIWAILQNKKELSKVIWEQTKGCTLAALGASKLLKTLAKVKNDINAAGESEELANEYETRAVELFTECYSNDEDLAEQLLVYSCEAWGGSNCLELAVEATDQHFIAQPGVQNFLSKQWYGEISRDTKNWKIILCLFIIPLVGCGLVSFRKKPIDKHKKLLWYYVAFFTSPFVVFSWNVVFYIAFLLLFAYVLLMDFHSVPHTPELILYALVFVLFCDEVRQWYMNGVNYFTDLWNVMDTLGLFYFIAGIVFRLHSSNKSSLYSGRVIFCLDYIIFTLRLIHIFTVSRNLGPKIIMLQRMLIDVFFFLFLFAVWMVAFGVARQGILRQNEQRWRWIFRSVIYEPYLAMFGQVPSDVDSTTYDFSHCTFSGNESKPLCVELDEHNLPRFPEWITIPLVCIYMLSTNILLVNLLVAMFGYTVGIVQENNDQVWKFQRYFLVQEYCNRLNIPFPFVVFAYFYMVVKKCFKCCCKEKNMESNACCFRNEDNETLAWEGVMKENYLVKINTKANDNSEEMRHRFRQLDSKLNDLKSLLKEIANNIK
Protocol: as §1, §2
as §3, with “Mean value curve of calcium influx response (n=12−62 per each experimental values) was made by Hill plot.” left out

HaCat skin cells = experiment: Artificial wound recovery: migration and proliferation of HaCat skin cells; assay type: cell-based; details: 1 μM of FPP, 12 hours after the treatment
Protocol: HaCat (ATCC, CCL-228) cell line was seeded in a 24-well plate. The present inventors drew lines 1 mm deep on the well fully filled with the cells to make artificial wound. The wounded cells were treated with FPP (1 μM), camphor (4 mM), RR (20 μM) and GGPP (10 μM) respectively and incubated in a CO2 incubator for 12 hours. The control group was not-treated. The width of recovered wound was measured under microscope and compared with that at the beginning, which was presented as wound recovery rate. All the experiments were performed on DMEM/FBS. Floating cells, which means dead cells, after making wound, were eliminated by using PBS to eliminate variables caused by dead cells. The cells were observed under microscope (×40, IX 71 OLYMPUS), and distance was measured by using image analysis program (Meta-flour 7.1, Molecular Devices, USA).

mice = experiment: Acute hind paw licking/flicking behaviors after CFA inflammatory sensitization; assay type: in vivo; details: CFA-injected right hind paw, FPP injected into hind paw, 20 minutes
Protocol: Inflammatory sensitization by FPP was investigated. Particularly, 10 μl of CFA (complete Freund's adjuvant; Sigma Aldrich, USA) was injected to the right hind paws of mice 24 hours before the FPP injection. Before the experiment, the mice were adapted for one hour to the experimental environment. 10 μl of vehicle (saline containing 3% DMSO and 0.5% Tween 80) alone or 10 μl of vehicle containing FPP (3 mM) was injected to the right hind paws of the mice. The time spent for the hind paw licking/flicking behaviors in mice were measured according to the method of Bandell M, et al. (Neuron 41:849-857, 2004) and Moqrich A, et al. (Science 307:1468-1472, 2005), for 20 minutes. Control: not-treated; Experimental group 1.20 μl of CFA+300 μM of FPP PBS solution (black circle); Experimental group 2.20 μl of CFA (white circle).

SMILES: CC(C)=CCCC(C)=CCCC(C)=CCOP(=O)(O)OP(=O)(O)O [FPP, 3,7,11-trimethyldodeca-2,6,10-trien-1-yl trihydrogen diphosphate]
- TRPV3 activity (whole cell current) (mTRPV3 [1]; 1 μM of FPP, +60 mV and −60 mV): significant increase of TRPV3 activity
- TRPV3 activation (calcium imaging) (mTRPV3 [2]; 1 μM of FPP): activated
- maximal effective dose (mTRPV3 [2]; calcium influx response, FPP 0.1 to 1,000 nM): approximately 1 μM
- EC50 (mTRPV3 [2]; calcium influx response, FPP 0.1 to 1,000 nM, Hill plot, read-out: EC50 (effective concentration 50%) to TRPV3): 31.9 nM
- TRPA1 activation (calcium imaging) (mTRPA1): did not exhibited activity
- TRPV1 activation (calcium imaging) (rTRPV1): did not exhibited activity
- TRPV2 activation (calcium imaging) (rTRPV2): did not exhibited activity
- TRPV4 activation (calcium imaging) (rTRPV4): did not exhibited activity
- TRPM8 activation (calcium imaging) (mTRPM8): did not exhibited activity
- migration and proliferation of HaCat skin cells (wound recovery rate) (HaCat skin cells): significantly inhibited
- hind paw licking/flicking behavior (pain) (mice): significantly increased licking/flicking behavior

SMILES: CC(C)=CCC/C(C)=C/CC/C(C)=C/CC/C(C)=C/COP(=O)(O)OP(=O)(O)O [GGPP, geranyl-geranyl pyrophosphate, reference compound]
- TRPV3 activation (calcium imaging) (mTRPV3 [2]; 10 μM of analogue): did not induce TRPV3 activation

SMILES: CC12CCC(CC1=O)C2(C)C (centres unmarked) [camphor]
- TRPV3 activity (whole cell current) (mTRPV3 [1]; camphor 4 mM): the activity was not so much increased

SMILES: N.N.N.N.N.N.N.N.N.N.N.N.N.N.[Cl-].[Cl-].[Cl-].[Cl-].[Cl-].[Cl-].[O-2].[O-2].[Ru+3].[Ru+3].[Ru+4] [ruthenium red]
- TRPV3 activity (whole cell current) on treatment with the TRP ion channel blocker (mTRPV3 [1]; ruthenium red applied to the activated mTRPV3 transfected cells): activity was reduced
